Experimental data as given in ChEMBL document CHEMBL4513149, “CO-ADD screening of MMV (CH) - MMV compounds” (2021).
In brackets after ≈: the same amount, converted by molar mass.

How the values were obtained:
[1] = tested on: HEK293; experiment: cells; format: functional; details: Homo sapiens, ATCC CRL1573, HEK293; ASSAY_TEST Inhibition of Cell Viability; detection method Resazurin; Fluorescence (ex560/em590); MEDIA DMEM with 10% FBS; plate type 384well; TC; CORNING #3712; time 18 hr
[2] = tested on: Cryptococcus neoformans
Description: Antifungal activity against Cryptococcus neoformans H99 ATCC 208821 (CO-ADD:FG_002); MIC in YNB media using NBS plates, by Resazurin OD(600-570)

[3] = tested on: Staphylococcus aureus; experiment: microbe, parasite or virus in culture; details: ATCC 43300, 18 h, ASSAY_TEST Inhibition of Bacterial Growth, detection method Absorption (OD600), MEDIA CAMHB, plate type 384well, NBS, CORNING #3640
Description: Antibacterial activity against Staphylococcus aureus MRSA ATCC 43300 (CO-ADD:GP_020); MIC in CAMBH media, using NBS plates, by OD(600)

[4] = tested on: Escherichia coli; experiment: microbe, parasite or virus in culture; details: ATCC 25922, 18 h, ASSAY_TEST Inhibition of Bacterial Growth, detection method Absorption (OD600), MEDIA CAMHB, plate type 384well, NBS, CORNING #3640
Description: Antibacterial activity against Escherichia coli ATCC 25922 (CO-ADD:GN_001); MIC in CAMBH media using NBS plates, by OD(600)

[5] = tested on: Klebsiella pneumoniae; experiment: microbe, parasite or virus in culture; details: ATCC 700603, 18 h, ASSAY_TEST Inhibition of Bacterial Growth, detection method Absorption (OD600), MEDIA CAMHB, plate type 384well, NBS, CORNING #3640
Description: Antibacterial activity against Klebsiella pneumoniae MDR ATCC 70063 (CO-ADD:GN_003); MIC in CAMBH media using NBS plates, by OD(600)

[6] = tested on: Pseudomonas aeruginosa; experiment: microbe, parasite or virus in culture; details: ATCC 27853, 18 h, ASSAY_TEST Inhibition of Bacterial Growth, detection method Absorption (OD600), MEDIA CAMHB, plate type 384well, NBS, CORNING #3640
Description: Antibacterial activity against Pseudomonas aeruginosa ATCC 27853 (CO-ADD:GN_042); MIC in CAMBH media using NBS plates, by OD(600)

[7] = tested on: Acinetobacter baumannii; experiment: microbe, parasite or virus in culture; details: ATCC 19606, 18 h, ASSAY_TEST Inhibition of Bacterial Growth, detection method Absorption (OD600), MEDIA CAMHB, plate type 384well, NBS, CORNING #3640
Description: Antibacterial activity against Acinetobacter baumannii ATCC 19606 (CO-ADD:GN_034); MIC in CAMBH media using NBS plates, by OD600

[8] = tested on: Candida albicans; experiment: microbe, parasite or virus in culture; details: ATCC 90028, ASSAY_TEST Inhibition of Fungal Growth, detection method Absorption (OD530), plate type 384well, NBS, CORNING #3640
Description: Antifungal activity against Candida albicans ATCC 90028 (CO-ADD:FG_001); MIC in YNB media using NBS plates, by OD630

| MIC [2] [µM] | MIC [3] [µM] | MIC [4] [µM] | MIC [5] [µM] | MIC [6] [µM] | MIC [7] [µM] | MIC [8] [µM] | SMILES | CC50 [1] [µM] |
| --- | --- | --- | --- | --- | --- | --- | --- | --- |
| > 10 | > 10 | > 10 | > 10 | > 10 | > 10 | > 10 | COc1cccc(-n2nnnc2S(C)(=O)=O)c1 | 2.96 |
| 1.25 (≈ 0.504 µg/mL) | 1.25 (≈ 0.504 µg/mL) | 5 (≈ 2.02 µg/mL) | 10 (≈ 4.03 µg/mL) | 10 (≈ 4.03 µg/mL) | 5 (≈ 2.02 µg/mL) | 2.5 (≈ 1.01 µg/mL) | N=C(N)Nc1ccc(-c2ccc(-c3ccc(NC(=N)N)cc3Cl)o2)c(Cl)c1 | > 10 |
| > 10 | > 10 | > 10 | > 10 | > 10 | > 10 | > 10 | Nc1nc2cc(-c3cncc(Oc4ccc(F)cc4)c3)ccc2[nH]1 | > 10 |
| > 10 | > 10 | > 10 | > 10 | > 10 | > 10 | > 10 | O=C(Nc1ccc(C(F)(F)F)c(C(F)(F)F)c1)c1cc(Cl)ccc1O | > 10 |
| > 10 | > 10 | > 10 | > 10 | > 10 | > 10 | > 10 | Cc1cc(NC(=O)c2ccc(Oc3ccc(Cl)cc3O)o2)no1 | > 10 |
| > 10 | > 10 | > 10 | > 10 | > 10 | > 10 | > 10 | CCN(CC)S(=O)(=O)c1ccc(C(=O)Nc2cc(C)nn2-c2nc(C)c(C)c(=O)[nH]2)cc1 | > 10 |
| > 10 | 1.25 (≈ 0.531 µg/mL) | > 10 | > 10 | > 10 | > 10 | > 10 | COc1ccc2nccc(NC(=O)C3CCN(CCc4ccc(Cl)cc4)CC3)c2n1 | > 10 |
| > 10 | > 10 | > 10 | > 10 | > 10 | > 10 | > 10 | CN1CCN(CCCOc2ncc(Nc3ncc(-c4ccc(C(F)(F)F)c(F)c4)nc3C(N)=O)cn2)CC1 | > 10 |
| > 10 | > 10 | > 10 | > 10 | > 10 | > 10 | > 10 | Cn1c(=O)c2c(S(C)(=O)=O)snc2n(C)c1=O | 9.72 |
| > 10 | 10 (≈ 4.03 µg/mL) | > 10 | > 10 | > 10 | > 10 | > 10 | N=C(N)Nc1ccc(-c2ccc(-c3ccc(N=C(N)N)c(Cl)c3)o2)cc1Cl | > 10 |
| > 10 | > 10 | > 10 | > 10 | > 10 | > 10 | > 10 | c1cncc(NCc2ccc(-c3cc4ccncc4cc3OC3CCNCC3)s2)c1 | > 10 |
| > 10 | > 10 | > 10 | > 10 | > 10 | > 10 | > 10 | Cc1cc(NCCc2ccccc2)nc(NC(=N)Nc2ccc(Cl)cc2)n1 | > 10 |
| > 10 | 10 (≈ 2.94 µg/mL) | > 10 | > 10 | > 10 | > 10 | > 10 | c1ccc(-c2nc(NC3CCCCC3)cc(C3CC3)n2)nc1 | > 10 |
| > 10 | 10 (≈ 3.59 µg/mL) | > 10 | > 10 | > 10 | > 10 | > 10 | FC(F)(F)c1cnc(Sc2nnc(-c3ccncc3)o2)c(Cl)c1 | > 10 |

| SMILES | MIC [2] [µM] | MIC [3] [µM] | MIC [4] [µM] | MIC [5] [µM] | MIC [6] [µM] | MIC [7] [µM] | MIC [8] [µM] | CC50 [1] [µM] |
| --- | --- | --- | --- | --- | --- | --- | --- | --- |
| O=C1O[C@@H](COc2ccon2)CN1c1cc(F)c(C2=CCN(Cc3ccccc3)CC2)c(F)c1 | > 10 | > 10 | > 10 | > 10 | > 10 | > 10 | > 10 | > 10 |
